Measured values reported in PubChem BioAssay (NCI).
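Briefly, cells in 96-well plates were exposed to five compound concentrations for 48 h, and endpoints were estimated by linear interpolation. TGI: concentration producing complete growth inhibition.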

Tests used:
Assay in all cases: DTP human tumour cell line panel, 48 h
A549 NSCLC = test system: A549 NSCLC
HT29 colon = test system: HT29 colon
K-562 leukemia = test system: K-562 leukemia
KM12 colon = test system: KM12 colon
NCI/ADR-RES ovarian = test system: NCI/ADR-RES ovarian
RPMI-8226 leukemia = test system: RPMI-8226 leukemia
RXF 393 renal = test system: RXF 393 renal
SN12C renal = test system: SN12C renal
UACC-62 melanoma = test system: UACC-62 melanoma

Row | SMILES | TGI (A549 NSCLC) | TGI (HT29 colon) | TGI (K-562 leukemia) | TGI (KM12 colon) | TGI (NCI/ADR-RES ovarian) | TGI (RPMI-8226 leukemia) | TGI (RXF 393 renal) | TGI (SN12C renal) | TGI (UACC-62 melanoma)
1 | CN1C/C(=C\c2cccs2)C2=NC(=S)NC(c3cccs3)C2C1 (stereo unspecified) | > 100 µM | > 100 µM | > 100 µM | > 100 µM | > 100 µM | > 100 µM | > 100 µM | > 100 µM | > 100 µM
2 | CC1(C)O[C@H]2Cn3c(c(C#N)c4ccccc43)[C@H]2O1 | > 100 µM | > 100 µM |  | > 100 µM | > 100 µM | > 100 µM |  | > 100 µM | > 100 µM
3 | COc1cc(/C=C2/SC(c3ccccc3)N(c3ccc(NC(C)=O)cc3)C2=O)cc(OC)c1OC (stereo unspecified) | > 100 µM | > 100 µM | > 100 µM | > 100 µM | > 100 µM | > 100 µM | > 100 µM | > 100 µM | > 100 µM
4 | COc1c2cc([N+](=O)[O-])cc1CNC(=O)CN1CCOCCOCCN(CCOCCOCC1)CC(=O)NC2 | > 100 µM | > 100 µM | > 100 µM | > 100 µM | > 100 µM | > 100 µM | > 100 µM | > 100 µM | > 100 µM
5 | Clc1ccc(-c2ccc(-c3nnc(CCc4nnc(-c5ccc(-c6ccc(Cl)cc6)o5)o4)o3)o2)cc1 | > 100 µM | > 100 µM | > 61.2 µM | > 100 µM | > 100 µM | > 100 µM | > 56 µM | > 100 µM | > 100 µM
6 | Cc1ccc(S(=O)(=O)c2scc(-c3ccccc3)c2C)cc1 | > 100 µM | > 100 µM | > 100 µM | > 100 µM | > 100 µM | > 100 µM | > 100 µM | > 100 µM | > 100 µM
7 | C=C(C)C(=O)CC[C@@H](C)[C@H]1[C@@H](OC2OC(CO)C(O)C(O)C2O)C[C@@]2(C)[C@@H]3C[C@H](O)C4C(C)(C)[C@@H](OC5OC(CO)C(O)C(O)C5O)CC[C@@]45C[C@@]35CC[C@]12C (stereo partly specified) | > 100 µM | > 100 µM | > 100 µM | > 100 µM | > 100 µM | > 100 µM |  | > 100 µM | > 100 µM
8 | CC1=NN(C(=O)CSc2nnc(SCC(=O)N3N=C(C)CC3(O)c3ccccc3)s2)C(O)(c2ccccc2)C1 (stereo unspecified) | > 100 µM |  | > 100 µM | 93.2 µM | 68.3 µM | > 100 µM | 75.1 µM | > 100 µM | 56.3 µM
9 | CCC(C)[C@@H](NCc1ccccc1)[C@H](OCc1ccccc1)[C@@H]1COC(C)(C)O1 (stereo partly specified) | 78.8 µM | 23.7 µM | 59.8 µM | 44.3 µM | 55.3 µM | 36.1 µM |  | 49 µM | 42.3 µM
10 | CCOC(=O)c1cnc(-n2[nH]c(C)c(CCO)c2=O)[nH]c1=O | > 100 µM | > 100 µM | > 100 µM | > 100 µM | > 100 µM | > 100 µM | > 100 µM | > 100 µM | > 100 µM
11 | O=C(Nc1cccc2ccccc12)Oc1ccccc1C1CCCCC1 | 44.1 µM | 34.1 µM | 60.4 µM | 41.7 µM |  | 81.9 µM | 29.2 µM | 30.1 µM | 30.5 µM
12 | C=C(C)[C@@H]1CC[C@]2(C(=O)O)CC[C@]3(C)[C@H](CC[C@@H]4[C@@]5(C)CC(=O)C(C)(C)[C@@H]5CC[C@]43C)[C@@H]12 | > 25 µM | > 25 µM | > 25 µM | > 25 µM | > 25 µM | 11.6 µM | > 25 µM | 13.6 µM | 6.66 µM
13 | O=c1cc(CNC2CCCC2)[nH]c(=O)[nH]1 | > 100 µM | > 100 µM | > 100 µM | > 100 µM | > 100 µM | > 100 µM | > 100 µM | > 100 µM | > 100 µM
14 | O=C1C(N2CCCC2)=CC(=O)c2c(O)c(N3CCCC3)c(Cl)c(O)c21 | > 10 µM | > 10 µM | > 10 µM | > 10 µM | > 10 µM | > 10 µM | > 10 µM | > 10 µM | > 10 µM
15 | O=C(CSCC(=O)N/N=C/c1cc(I)cc(I)c1O)N/N=C/c1cc(I)cc(I)c1O | > 100 µM | > 100 µM | 37.7 µM | 88.2 µM | 59.9 µM | 61.5 µM | 24.5 µM | > 100 µM | 31.9 µM
16 | Nc1nc(N)c2ncn(CC3CCC(CO)C3)c2n1 (stereo unspecified) | > 100 µM |  | > 100 µM | > 100 µM | > 100 µM | > 100 µM | > 100 µM | > 100 µM | > 100 µM
17 | Clc1ccc2c(SCC3CO3)c3ccccc3nc2c1 (stereo unspecified) | 20.3 µM | 3.23 µM | 4.43 µM |  | 7.24 µM | 7.19 µM | 8.08 µM | 7.35 µM | > 100 µM
18 | O=S(=O)(Oc1ccc2oc3ccccc3c2c1-c1c(OS(=O)(=O)C(F)(F)F)ccc2oc3ccccc3c12)C(F)(F)F | > 100 µM | > 100 µM | > 100 µM | > 100 µM | > 100 µM | > 100 µM | > 100 µM |  | > 100 µM
19 | COc1cccc2c1OC1c3ccccc3OCC1C2 (stereo unspecified) | > 100 µM | > 100 µM | > 100 µM | > 100 µM | > 100 µM | > 100 µM |  | > 100 µM | > 100 µM
20 | c1csc(-c2ccc(-c3ccc(-c4ccc(-c5cccs5)s4)s3)s2)c1 |  | > 100 µM | > 100 µM |  | > 100 µM | > 100 µM | > 100 µM | > 100 µM | > 100 µM
21 | COC(=O)c1cn(CCCC(=O)O)nn1 | > 100 µM | > 100 µM |  | > 100 µM | > 100 µM |  | > 100 µM | > 100 µM | > 100 µM
22 | CCOC(=O)CCCn1nnc(C(=O)OCC)c1C(=O)OCC | > 100 µM | > 100 µM |  | > 100 µM | > 100 µM |  | > 100 µM | > 100 µM | > 100 µM
23 | CC(=O)NC1C(OCc2ccccc2)OC(CO)C(O)C1OCC(=O)NC(C)C(=O)NC(CCC(=O)NCCCCNc1ccc([N+](=O)[O-])c2[nH]c3ccccc3c(=O)c12)C(N)=O (stereo unspecified) | > 100 µM | > 100 µM | > 100 µM | > 100 µM | > 100 µM |  |  | > 100 µM | 
24 | O=C(O)CCCl | > 5000 µM | > 5000 µM | > 5000 µM | > 5000 µM |  | > 5000 µM | > 5000 µM | > 5000 µM | 4740 µM
